Assays:
[1] = target: T1, IP receptor (Homo sapiens, UniProt P43119); assay: Iloprost-induced cAMP production assay in HEL cells (Assay 2); format: cell-based; conditions: read-out: Activity grade assay 2
T1 construct: HEL cells were collected with centrifugation and washed with cAMP assay buffer; host or cells: HEL 92.1.7 human erythroleukemia cells
Method: [Iloprost-Induced cAMP Production Assay in HEL Cells] (Assay 2)
HEL cells were collected with centrifugation and washed with cAMP assay buffer (CAB: Hank's balanced salt solution, 17 mM Hepes, 0.1% bovine serum albumin, 1 mM IBMX, 0.4% DMSO, and 1 mM L-ascorbic acid sodium salt (pH 7.4)). Cells were suspended at the density of 2.5×10^5 cells/ml in CAB, and twenty thousand cells in 80 μl aliquot of cell suspension were put in a well of 96 well plate (Falcon). Then, 10 μl of compound solution diluted with 1% DMSO in CAB or buffer alone was added. The plate was incubated at 37° C. for 30 min. Then, another 10 μl containing 100 nM iloprost in CAB or buffer alone was added and further incubated at 37° C. for 30 min. cAMP content in the well was measured by a cAMP ELISA kit (Applied Biosystems, USA).
Results of Iloprost-induced cAMP production assay (Assay2) are shown in Examples and tables of the Examples below. For practical reasons, the compounds are grouped in three classes of activity as follows: A(=or<)0.1μM<B(=or<)1μM<C

T1 sequence (P43119 whole entry): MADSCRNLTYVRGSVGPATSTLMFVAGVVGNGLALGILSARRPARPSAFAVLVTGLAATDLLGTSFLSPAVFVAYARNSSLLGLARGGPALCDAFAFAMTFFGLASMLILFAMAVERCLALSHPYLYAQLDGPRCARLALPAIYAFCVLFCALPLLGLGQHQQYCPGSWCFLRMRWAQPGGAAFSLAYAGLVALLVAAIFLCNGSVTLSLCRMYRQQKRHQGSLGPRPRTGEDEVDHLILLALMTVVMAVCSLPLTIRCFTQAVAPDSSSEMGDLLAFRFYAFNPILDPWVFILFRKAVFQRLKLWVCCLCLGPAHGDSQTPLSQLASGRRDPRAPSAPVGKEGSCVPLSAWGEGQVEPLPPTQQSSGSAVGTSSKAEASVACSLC

In the case of `O=C(NC(Cc1ccc(Br)cc1)C(=O)O)c1ccc2cc(OCc3ccccc3)ccc2c1` (stereo not shown) [Example 1-45], the melting point is reported as 219 to 220 °C and the IC50 [1] is reported as < 100 nM.
For `O=C(NC(Cc1ccc([N+](=O)[O-])cc1)C(=O)O)c1ccc2cc(OCc3ccccc3)ccc2c1` (stereo not shown) [Example 1-46], the melting point was 227 to 228 °C and the IC50 [1] was < 100 nM.
In the case of `O=C(NC(Cc1cccc(O)c1)C(=O)O)c1ccc2cc(OCc3ccccc3)ccc2c1` (stereo not shown) [Example 1-47], the melting point is reported as 214 °C and the IC50 [1] is reported as < 100 nM.
In the case of `O=C(NC(Cc1cccc2ccccc12)C(=O)O)c1ccc2cc(OCc3ccccc3)ccc2c1` (stereo not shown) [Example 1-48], the melting point is reported as 218 °C and the IC50 [1] is reported as < 100 nM.
With `O=C(NC(Cc1c[nH]c2ccc(O)cc12)C(=O)O)c1ccc2cc(OCc3ccccc3)ccc2c1` (stereo not shown) [Example 1-49] the melting point was 261 to 262 °C (dec.) and the IC50 [1] was < 100 nM.
For `O=C(NC(Cc1ccccc1F)C(=O)O)c1ccc2cc(OCc3ccccc3)ccc2c1` (stereo not shown) [Example 1-50], the melting point was 211 to 213 °C and the IC50 [1] was < 100 nM.
With `O=C(NC(Cc1ccccc1)C(=O)O)c1ccc2cc(OCc3ccccc3Br)ccc2c1` (stereo not shown) [Example 1-51] the melting point was 206 to 207 °C and the IC50 [1] was < 100 nM.
With `O=C(NC(Cc1ccccc1)C(=O)O)c1ccc2cc(OCc3cccc(Br)c3)ccc2c1` (stereo not shown) [Example 1-52] the melting point was 194 °C and the IC50 [1] was < 100 nM.
For `O=C(NC(Cc1ccccc1)C(=O)O)c1ccc2cc(OCc3ccc(Br)cc3)ccc2c1` (stereo not shown) [Example 1-53], the melting point was 232 °C and the IC50 [1] was > 1000 nM.
With `Cc1ccccc1COc1ccc2cc(C(=O)NC(Cc3ccccc3)C(=O)O)ccc2c1` (stereo not shown) [Example 1-54] the melting point was 204 °C and the IC50 [1] was < 100 nM.
With `Cc1cccc(COc2ccc3cc(C(=O)NC(Cc4ccccc4)C(=O)O)ccc3c2)c1` (stereo not shown) [Example 1-55] the melting point was 184 to 185 °C and the IC50 [1] was < 100 nM.
`Cc1ccc(COc2ccc3cc(C(=O)NC(Cc4ccccc4)C(=O)O)ccc3c2)cc1` (stereo not shown) [Example 1-56] gave a melting point of 212 °C and an IC50 [1] of 100 to 1000 nM.
Work on `Cc1cc(C)cc(COc2ccc3cc(C(=O)NC(Cc4ccccc4)C(=O)O)ccc3c2)c1` (stereo not shown) [Example 1-57] yielded a melting point of 167 to 168 °C and an IC50 [1] of 100 to 1000 nM.
`Cc1ccc(COc2ccc3cc(C(=O)NC(Cc4ccccc4)C(=O)O)ccc3c2)cc1C` (stereo not shown) [Example 1-58] gave a melting point of 189 °C and an IC50 [1] of 100 to 1000 nM.
`O=C(NC(Cc1ccccc1)C(=O)O)c1ccc2cc(OCc3ccc(F)cc3F)ccc2c1` (stereo not shown) [Example 1-59] gave a melting point of 199 °C and an IC50 [1] of 100 to 1000 nM.
`CC(Oc1ccc2cc(C(=O)NC(Cc3ccccc3)C(=O)O)ccc2c1)c1ccccc1` (stereo not shown) [Example 1-60] gave a melting point of 170 to 172 °C and an IC50 [1] of 100 to 1000 nM.
With `O=C(NC(Cc1ccccc1)C(=O)O)c1ccc2cc(OCc3cccc([N+](=O)[O-])c3)ccc2c1` (stereo not shown) [Example 1-61] the melting point was 193 to 194 °C and the IC50 [1] was < 100 nM.
Compound `Cc1nc(COc2ccc3cc(C(=O)NC(Cc4ccccc4)C(=O)O)ccc3c2)cs1` (stereo not shown) [Example 1-62] has a melting point of 208 °C and an IC50 [1] of 100 to 1000 nM.
For `O=C(NC(Cc1ccccc1)C(=O)O)c1ccc2cc(OCCCn3cccc3)ccc2c1` (stereo not shown) [Example 1-63], the melting point was 195 °C and the IC50 [1] was 100 to 1000 nM.
`O=C(NC(Cc1ccccc1)C(=O)O)c1ccc2cc(OCCCc3ccccc3)ccc2c1` (stereo not shown) [Example 1-64] showed a melting point of 182 °C and an IC50 [1] of 100 to 1000 nM.
`CCCCOc1ccc2cc(C(=O)NC(Cc3ccccc3)C(=O)O)ccc2c1` (stereo not shown) [Example 1-65] gave a melting point of 209 °C and an IC50 [1] of 100 to 1000 nM.
For `Nc1ccc(CC(NC(=O)c2ccc3cc(OCc4ccccc4)ccc3c2)C(=O)O)cc1` (stereo not shown) [Example 1-66], the melting point was 238 to 240 °C and the IC50 [1] was > 1000 nM.
For `O=C(NC(Cc1ccc2ccccc2c1)C(=O)O)c1ccc2cc(OCc3ccccc3)ccc2c1` (stereo not shown) [Example 1-67], the melting point was 226 to 227 °C and the IC50 [1] was < 100 nM.
For `CS(=O)(=O)Nc1ccc(CC(NC(=O)c2ccc3cc(OCc4ccccc4)ccc3c2)C(=O)O)cc1` (stereo not shown) [Example 1-68], the melting point was 236 to 237 °C and the IC50 [1] was > 1000 nM.
For `O=C(NC(Cc1ccncc1)C(=O)O)c1ccc2cc(OCc3ccccc3)ccc2c1` (stereo not shown) [Example 1-69], the melting point was 260 to 262 °C (dec.) and the IC50 [1] was 100 to 1000 nM.
`O=C(NC(Cc1ccccc1)C(=O)O)c1ccc2cc(OCc3cccc4ccccc34)ccc2c1` (stereo not shown) [Example 1-70] showed a melting point of 220 °C and an IC50 [1] of 100 to 1000 nM.
For `O=C(NC(Cc1ccc(I)cc1)C(=O)O)c1ccc2cc(OCc3ccccc3)ccc2c1` (stereo not shown) [Example 1-71], the melting point was 219 to 221 °C and the IC50 [1] was < 100 nM.
In the case of `O=C(NC(CCc1ccccc1)C(=O)O)c1ccc2cc(OCc3ccccc3)ccc2c1` (stereo not shown) [Example 1-72], the melting point is reported as 223 to 225 °C and the IC50 [1] is reported as > 1000 nM.
`O=C(NC(Cc1ccc(-c2ccccc2)cc1)C(=O)O)c1ccc2cc(OCc3ccccc3)ccc2c1` (stereo not shown) [Example 1-73] gave a melting point of 250 to 252 °C and an IC50 [1] of 100 to 1000 nM.
In the case of `O=C(NC(Cc1ccccc1)C(=O)O)c1ccc2cc(OCC3CCCCC3)ccc2c1` (stereo not shown) [Example 1-74], the melting point is reported as 220 °C and the IC50 [1] is reported as 100 to 1000 nM.
In the case of `O=C(NC(Cc1ccc(-c2ccncc2)cc1)C(=O)O)c1ccc2cc(OCc3ccccc3)ccc2c1` (stereo not shown) [Example 1-75], the melting point is reported as 247 to 249 °C (dec.) and the IC50 [1] is reported as 100 to 1000 nM.
With `O=C(NC(Cc1ccc(N2CCOCC2)cc1)C(=O)O)c1ccc2cc(OCc3ccccc3)ccc2c1` (stereo not shown) [Example 1-76] the melting point was 216 to 218 °C (dec.) and the IC50 [1] was > 1000 nM.
`O=C(NC(Cc1ccccc1)C(=O)O)c1ccc2cc(OCCc3cccnc3)ccc2c1` (stereo not shown) [Example 1-77] gave a melting point of 113 °C and an IC50 [1] of 100 to 1000 nM.
For `O=C(NC(Cc1ccccc1)C(=O)O)c1ccc2cc(OCCc3ccccn3)ccc2c1` (stereo not shown) [Example 1-78], the melting point was 143 °C and the IC50 [1] was 100 to 1000 nM.
With `O=C(NC(Cc1c[nH]c2ccc(F)cc12)C(=O)O)c1ccc2cc(OCc3ccccc3)ccc2c1` (stereo not shown) [Example 1-79] the melting point was 236 to 238 °C (dec.) and the IC50 [1] was < 100 nM.
With `O=C(NC(Cc1c[nH]c2ncccc12)C(=O)O)c1ccc2cc(OCc3ccccc3)ccc2c1` (stereo not shown) [Example 1-80] the melting point was 275 to 277 °C (dec.) and the IC50 [1] was < 100 nM.
With `O=C(NC(Cc1ccccc1)C(=O)O)c1ccc2cc(OCCN3CCCC3)ccc2c1` (stereo not shown) [Example 1-81] the melting point was 234 °C and the IC50 [1] was > 1000 nM.
With `O=C(NC(Cc1ccccc1)C(=O)O)c1ccc2cc(OCCN3CCCCC3)ccc2c1` (stereo not shown) [Example 1-82] the melting point was 215 °C and the IC50 [1] was > 1000 nM.
With `O=C(NC(Cc1ccccc1)C(=O)O)c1ccc2cc(OCCc3ccncc3)ccc2c1` (stereo not shown) [Example 1-83] the melting point was 190 °C and the IC50 [1] was < 100 nM.
Work on `CC(Cc1ccccc1)(NC(=O)c1ccc2cc(OCc3ccccc3)ccc2c1)C(=O)O` (stereo not shown) [Example 1-84] yielded a melting point of 184 °C and an IC50 [1] of 100 to 1000 nM.
For `O=C(NC(Cc1ccccc1)C(=O)O)c1ccc2cc(OCc3cccc(O)c3)ccc2c1` (stereo not shown) [Example 1-85], the melting point was 157 °C and the IC50 [1] was < 100 nM.
With `O=C(NC(Cc1ccccc1)C(=O)O)c1ccc2cc(OCCn3ccnc3)ccc2c1` (stereo not shown) [Example 1-86] the melting point was 172 °C (dec.) and the IC50 [1] was 100 to 1000 nM.
In the case of `O=C(NC(Cc1ccccc1)C(=O)O)c1ccc2cc(OCc3ccc[n+]([O-])c3)ccc2c1` (stereo not shown) [Example 1-87], the melting point is reported as 252 °C (dec.) and the IC50 [1] is reported as > 1000 nM.
For `O=C(NC(Cc1ccccc1)C(=O)O)c1ccc2cc(OCc3cccc(OCC4CCCCC4)c3)ccc2c1` (stereo not shown) [Example 1-88], the melting point was 180 °C and the IC50 [1] was > 1000 nM.
`O=C(NC(Cc1ccccc1)C(=O)O)c1ccc2cc(OCc3cccc(OCC4CC4)c3)ccc2c1` (stereo not shown) [Example 1-89] gave a melting point of 179 °C and an IC50 [1] of 100 to 1000 nM.
`CCCCOc1cccc(COc2ccc3cc(C(=O)NC(Cc4ccccc4)C(=O)O)ccc3c2)c1` (stereo not shown) [Example 1-90] gave a melting point of 172 °C and an IC50 [1] of 100 to 1000 nM.
For `CCOc1cccc(COc2ccc3cc(C(=O)NC(Cc4ccccc4)C(=O)O)ccc3c2)c1` (stereo not shown) [Example 1-91], the melting point was 145 °C and the IC50 [1] was < 100 nM.
Work on `CCCOc1cccc(COc2ccc3cc(C(=O)NC(Cc4ccccc4)C(=O)O)ccc3c2)c1` (stereo not shown) [Example 1-92] yielded a melting point of 173 °C and an IC50 [1] of 100 to 1000 nM.
`CC(C)COc1cccc(COc2ccc3cc(C(=O)NC(Cc4ccccc4)C(=O)O)ccc3c2)c1` (stereo not shown) [Example 1-93] gave a melting point of 140 °C and an IC50 [1] of 100 to 1000 nM.
For `CC(COc1ccc2cc(C(=O)NC(Cc3ccccc3)C(=O)O)ccc2c1)c1ccccc1` (stereo not shown) [Example 1-94], the melting point was 160 °C and the IC50 [1] was < 100 nM.
In the case of `O=C(N[C@H](Cc1ccccc1)C(=O)O)c1ccc2cc(OCc3ccccc3)ccc2c1` [Example 2-1, N-[6-(benzyloxy)-2-naphthoyl]-D-phenylalanine], the melting point is reported as 179 °C and the IC50 [1] is reported as < 100 nM.
In the case of `O=C(N[C@@H](Cc1ccccc1)C(=O)O)c1ccc2cc(Oc3ccccc3)ccc2c1` [Example 3-1, N-(6-phenoxy-2-naphthoyl)phenylalanine], the melting point is reported as 179 to 180 °C and the IC50 [1] is reported as > 1000 nM.
With `O=C(N[C@@H](Cc1ccccc1)C(=O)O)c1ccc2cc(NCc3ccccc3)ccc2c1` [Example 4-1, N-[6-(benzylamino)-2-naphthoyl]phenylalanine] the melting point was 172 °C and the IC50 [1] was 100 to 1000 nM.
